In this assay the target is T1, human GlyT1c transporter (Homo sapiens, UniProt P48067).
T1 construct: expressed in transfected cells; host or cells: CHO cells (recombinant; line hGlyT1c_5_CHO is named for the uptake assay)
T1 sequence (P48067 1-706): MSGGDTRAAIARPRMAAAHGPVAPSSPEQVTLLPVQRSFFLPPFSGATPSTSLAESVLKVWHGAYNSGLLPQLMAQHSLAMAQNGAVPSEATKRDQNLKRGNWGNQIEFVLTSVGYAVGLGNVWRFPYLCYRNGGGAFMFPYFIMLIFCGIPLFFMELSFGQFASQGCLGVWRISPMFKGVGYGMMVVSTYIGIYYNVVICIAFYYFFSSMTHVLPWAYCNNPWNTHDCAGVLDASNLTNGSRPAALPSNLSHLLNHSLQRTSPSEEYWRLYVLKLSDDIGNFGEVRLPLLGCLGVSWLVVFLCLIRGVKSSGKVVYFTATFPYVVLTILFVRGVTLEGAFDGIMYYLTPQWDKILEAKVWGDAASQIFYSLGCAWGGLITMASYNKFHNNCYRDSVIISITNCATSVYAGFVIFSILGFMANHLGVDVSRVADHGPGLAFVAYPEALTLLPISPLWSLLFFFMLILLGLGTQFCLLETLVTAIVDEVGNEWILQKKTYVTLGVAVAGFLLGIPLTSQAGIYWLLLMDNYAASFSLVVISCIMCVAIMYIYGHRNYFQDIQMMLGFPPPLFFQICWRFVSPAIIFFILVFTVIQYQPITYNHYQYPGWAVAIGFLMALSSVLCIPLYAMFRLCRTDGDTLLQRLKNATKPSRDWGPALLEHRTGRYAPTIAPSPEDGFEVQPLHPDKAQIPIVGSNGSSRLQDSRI
The assay can be described thus: Radioligand binding assay using recombinant CHO cell membranes expressing human GlyT1. The settings on record: radioligand binding to human GlyT1c transporter-expressing membranes. An excerpt:
2. Radioligand binding assays using recombinant CHO cell membranes expressing human GlyT1: […]
As for `Cn1cnc(S(=O)(=O)N2C[C@@H](Nc3ccc(F)c(OC(F)(F)F)c3)[C@H](c3ncccc3F)C2)c1` (relative stereo) [Example 768, Trans-4-(3-fluoropyridin-2-yl)-N-[4-fluoro-3-(trifluoromethoxy)phenyl]-1-[(1-methyl-1H-imidazol-4-yl)sulfonyl]pyrrolidin-3-amine], the Ki is not above 100 nM. With `Cn1cnc(S(=O)(=O)N2C[C@@H](COc3ccc(Cl)c(C(F)(F)F)c3)[C@H](c3ccc(F)cc3)C2)c1` (relative stereo) [Example 249, 4-{[trans-3-{[4-chloro-3-(trifluoromethyl)phenoxy]methyl}-4-(4-fluorophenyl)pyrrolidin-1-yl]sulfonyl}-1-methyl-1H-imidazole], the Ki was not above 1000 nM. For `Cn1cnc(S(=O)(=O)N2C[C@H](Nc3cc(OCC4CCNC4)ncn3)[C@@H](c3ccc(F)cc3)C2)c1` (stereo partly drawn) [Example 779, N-{(3R,4S)-4-(4-fluorophenyl)-1-[(1-methyl-1H-imidazol-4-yl)sulfonyl]pyrrolidin-3-yl}-6-(pyrrolidin-3-ylmethoxy)pyrimidin-4-amine], the Ki was not above 10000 nM. For `Cn1cnc(S(=O)(=O)N2C[C@@H](Nc3ccc(Cl)c(OC(F)(F)F)c3)[C@H](c3ccccc3)C2)c1` (relative stereo) [Example 299, trans-N-[4-chloro-3-(trifluoromethoxy)phenyl]-1-[(1-methyl-1H-imidazol-4-yl)sulfonyl]-4-phenylpyrrolidin-3-amine], the Ki is not above 1000 nM.

`Cn1cnc(S(=O)(=O)N2C[C@@H](Nc3ccccn3)[C@H](c3ccccc3)C2)c1` (relative stereo) [Example 207, N-{trans-1-[(1-methyl-1H-imidazol-4-yl)sulfonyl]-4-phenylpyrrolidin-3-yl}pyridin-2-amine]: the Ki is not above 10000 nM.

As to `Cn1cnc(S(=O)(=O)N2C[C@@H](C(=O)NCc3ccc(F)c(F)c3)[C@H](c3ccc(F)cc3)C2)c1` (relative stereo) [Example 631, Trans-N-(3,4-difluorobenzyl)-4-(4-fluorophenyl)-1-[(1-methyl-1H-imidazol-4-yl)sulfonyl]pyrrolidine-3-carboxamide], the Ki was not above 10 nM. On to `Cn1cnc(S(=O)(=O)N2C[C@@H](C(=O)Nc3ccccc3)[C@H](c3ccc(F)cc3)C2)c1` (relative stereo) [Example 242, trans-4-(4-fluorophenyl)-1-[(1-methyl-1H-imidazol-4-yl)sulfonyl]-N-phenylpyrrolidine-3-carboxamide], for which the Ki is not above 10000 nM.

Turning to `Cn1cnc(S(=O)(=O)N2C[C@@H](Nc3cccc(C(F)(F)F)c3F)[C@H](c3ccccc3)C2)c1` (relative stereo) [Example 222, trans-N-[2-fluoro-3-(trifluoromethyl)phenyl]-1-[(1-methyl-1H-imidazol-4-yl)sulfonyl]-4-phenylpyrrolidin-3-amine], the Ki is not above 1000 nM. Under `Cn1cnc(S(=O)(=O)N2C[C@H](Nc3ccc4occc4c3)[C@@H](c3ccccc3)C2)c1` [Example 660, (3R,4S)-N-(1-benzofuran-5-yl)-1-[(1-methyl-1H-imidazol-4-yl)sulfonyl]-4-phenylpyrrolidin-3-amine] stands not above 1000 nM; under `Cc1ccccc1N[C@@H]1CN(S(=O)(=O)c2cn(C)cn2)C[C@H]1c1ccc(F)cc1` (relative stereo) [Example 84, trans-4-(4-fluorophenyl)-1-[(1-methyl-1H-imidazol-4-yl)sulfonyl]-N-(2-methylphenyl)pyrrolidin-3-amine], not above 1000 nM; under `COc1ccc(S(=O)(=O)N2C[C@@H](Nc3cccc(C#N)c3)[C@H](c3ccccc3)C2)cc1` (relative stereo) [Example 137, 3-({trans-1-[(4-methoxyphenyl)sulfonyl]-4-phenylpyrrolidin-3-yl}amino)benzonitrile], not above 10000 nM. For the compound `Cn1cnc(S(=O)(=O)N2C[C@H](NCC3CNC(C(F)(F)F)CN3)[C@@H](c3ccccc3)C2)c1` (stereo partly drawn) [Example 423, (3R,4S)-1-[(1-methyl-1H-imidazol-4-yl)sulfonyl]-4-phenyl-N-{[5-(trifluoromethyl)piperazin-2-yl]methyl}pyrrolidin-3-amine], the inhibition constant Ki was not above 10000 nM.

A word on the Ki: it is a measure of affinity in units of concentration, obtained from inhibition or displacement.

These data come from patent publication EP2970215B1, “PYRROLIDINE DERIVATIVES, PHARMACEUTICAL COMPOSITIONS CONTAINING THEM, AND THEIR USE IN THERAPY” (AbbVie Deutschland GmbH & Co. KG, priority 2013, dated 2014).
